# Laboratory results as given in ChEMBL document CHEMBL1201862, “PubChem BioAssay data set” (2004).
#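 Step 1: Grow cells in 96-well plates. Step 2: Expose to compound for 48 hours at 5 concentrations. Step 3: Interpolate endpoints linearly; if unreached, use highest concentration. GI50 is the concentration that inhibits growth by half.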 The source made the active and inactive calls. Cut-off read from the data, not from the text of the source: active = GI50 up to about 1.1 µM and inactive = higher.
# Tests used:
# Assay in all cases: NCI tumour cell line growth inhibition, 48 h
# BT-549 = test system: BT-549
# ACHN = test system: ACHN
# 786-0 = test system: 786-0
# NCI-H226 = test system: NCI-H226
# UACC-257 = test system: UACC-257
# NCI-H23 = test system: NCI-H23
# HOP-92 = test system: HOP-92
# LOX IMVI = test system: LOX IMVI
# OVCAR-3 = test system: OVCAR-3
# MCF7 = test system: MCF7
# OVCAR-5 = test system: OVCAR-5
# SK-MEL-5 = test system: SK-MEL-5
# UACC-62 = test system: UACC-62
# OVCAR-4 = test system: OVCAR-4
# A549 = test system: A549
# MDA-MB-231 = test system: MDA-MB-231
# COLO 205 = test system: COLO 205
# CCRF-CEM = test system: CCRF-CEM
# NCI-H522 = test system: NCI-H522
SMILES,GI50 (BT-549),GI50 (ACHN),GI50 (786-0),GI50 (NCI-H226),GI50 (UACC-257),GI50 (NCI-H23),GI50 (HOP-92),GI50 (LOX IMVI),GI50 (OVCAR-3),GI50 (MCF7),GI50 (OVCAR-5),GI50 (SK-MEL-5),GI50 (UACC-62),GI50 (OVCAR-4),GI50 (A549),GI50 (MDA-MB-231),GI50 (COLO 205),GI50 (CCRF-CEM),GI50 (NCI-H522)
COc1ccc(/C=C2\N=C(SC)N(C)C2=O)cc1,> 100 µM (inactive),38.8 µM (inactive),68.7 µM (inactive),47.3 µM (inactive),> 100 µM (inactive),> 100 µM (inactive),> 100 µM (inactive),75.2 µM (inactive),46.1 µM (inactive),49.4 µM (inactive),95.7 µM (inactive),42.3 µM (inactive),70.3 µM (inactive),39.6 µM (inactive),63.2 µM (inactive),41.2 µM (inactive),94.6 µM (inactive),> 100 µM (inactive),
Cc1c(C)c(C)c(-n2c(=O)n(C)c(=O)n2C(C)(C)C)c(C)c1C,> 100 µM (inactive),> 100 µM (inactive),> 100 µM (inactive),,> 100 µM (inactive),> 100 µM (inactive),> 100 µM (inactive),> 100 µM (inactive),> 100 µM (inactive),> 100 µM (inactive),> 100 µM (inactive),> 100 µM (inactive),> 100 µM (inactive),> 100 µM (inactive),> 100 µM (inactive),> 100 µM (inactive),> 100 µM (inactive),38 µM (inactive),
N#Cc1nc(-c2ccsc2)oc1N,,> 100 µM (inactive),> 100 µM (inactive),,> 100 µM (inactive),,> 100 µM (inactive),> 100 µM (inactive),,> 100 µM (inactive),> 100 µM (inactive),> 100 µM (inactive),> 100 µM (inactive),,> 100 µM (inactive),> 100 µM (inactive),,> 100 µM (inactive),
C#C[C@@]1(O)CCCC2=CC3(CC[C@]21C)SCCS3,,> 100 µM (inactive),> 100 µM (inactive),> 100 µM (inactive),> 100 µM (inactive),> 100 µM (inactive),> 100 µM (inactive),> 100 µM (inactive),> 100 µM (inactive),> 100 µM (inactive),> 100 µM (inactive),> 100 µM (inactive),> 100 µM (inactive),> 100 µM (inactive),> 100 µM (inactive),> 100 µM (inactive),> 100 µM (inactive),,> 100 µM (inactive)
CCOc1snc(C(Cl)(Cl)Cl)c1Cl,10.7 µM (inactive),7.85 µM (inactive),31.7 µM (inactive),9.33 µM (inactive),14.3 µM (inactive),12 µM (inactive),,16.9 µM (inactive),14.1 µM (inactive),25 µM (inactive),> 100 µM (inactive),7.83 µM (inactive),19.4 µM (inactive),27.1 µM (inactive),17.5 µM (inactive),22.4 µM (inactive),18.8 µM (inactive),17.3 µM (inactive),
CC(CO)(CO)N1C(=O)C2C3c4ccccc4C(c4ccccc43)C2C1=O (configuration not stated),80.9 µM (inactive),> 100 µM (inactive),> 100 µM (inactive),> 100 µM (inactive),> 100 µM (inactive),> 100 µM (inactive),,,> 100 µM (inactive),> 100 µM (inactive),> 100 µM (inactive),> 100 µM (inactive),> 100 µM (inactive),,> 100 µM (inactive),45.8 µM (inactive),> 100 µM (inactive),> 100 µM (inactive),> 100 µM (inactive)
C=C(C1=CC(=O)C(C)(C)O1)[C@@H]1CC=C([C@@H]2CC[C@H]3[C@@]2(C)CC[C@H]2C(C)(C)C(=O)[C@H](O)C[C@]32C)[C@H](O)O1,5.38 µM (inactive),1.66 µM (inactive),0.273 µM (active),17.5 µM (inactive),1.97 µM (inactive),3.85 µM (inactive),1.98 µM (inactive),1.81 µM (inactive),0.847 µM (active),0.546 µM (active),13.7 µM (inactive),11.7 µM (inactive),4.88 µM (inactive),3.11 µM (inactive),13.6 µM (inactive),2.15 µM (inactive),1.8 µM (inactive),0.729 µM (active),
CCN(CC)CCCC(C)NC(=O)c1cc(-c2nccn2C)nc2ccc(C)cc12 (configuration not stated),> 100 µM (inactive),> 100 µM (inactive),> 100 µM (inactive),> 100 µM (inactive),> 100 µM (inactive),> 100 µM (inactive),> 100 µM (inactive),> 100 µM (inactive),,64.7 µM (inactive),> 100 µM (inactive),> 100 µM (inactive),> 100 µM (inactive),67.5 µM (inactive),> 100 µM (inactive),> 100 µM (inactive),> 100 µM (inactive),,
OCCN=C1c2ccccc2C2C(c3ccccc31)C1c3ccccc3C(=NCCO)c3ccccc3C21 (configuration not stated),23.6 µM (inactive),23.6 µM (inactive),28.2 µM (inactive),< 0.01 µM (active),24.7 µM (inactive),44.7 µM (inactive),,22 µM (inactive),18.2 µM (inactive),20.3 µM (inactive),19.6 µM (inactive),16.8 µM (inactive),15.3 µM (inactive),18.8 µM (inactive),20.6 µM (inactive),13.8 µM (inactive),15.6 µM (inactive),11.6 µM (inactive),
CCOC(=O)C12CCCC1(O)N(NC(=O)c1ccccc1)C(C)=C2C(=O)OC (configuration not stated),,> 100 µM (inactive),> 100 µM (inactive),> 100 µM (inactive),> 100 µM (inactive),> 100 µM (inactive),> 100 µM (inactive),> 100 µM (inactive),> 100 µM (inactive),,> 100 µM (inactive),,> 100 µM (inactive),> 100 µM (inactive),> 100 µM (inactive),,> 100 µM (inactive),> 100 µM (inactive),> 100 µM (inactive)
COc1ccc(-n2c3c(c4cc(O)ccc42)Cc2ccccc2C3=O)cc1,> 100 µM (inactive),,50.2 µM (inactive),63.7 µM (inactive),> 100 µM (inactive),> 100 µM (inactive),,35.9 µM (inactive),21.4 µM (inactive),9.16 µM (inactive),,39.2 µM (inactive),48.5 µM (inactive),7.83 µM (inactive),35.6 µM (inactive),20.1 µM (inactive),11.7 µM (inactive),4.9 µM (inactive),
O=C(Cn1c2ccc(Br)cc2c2nc3ccccc3nc21)NC1CCCCC1,> 100 µM (inactive),> 100 µM (inactive),> 100 µM (inactive),> 100 µM (inactive),> 100 µM (inactive),> 100 µM (inactive),51.1 µM (inactive),> 100 µM (inactive),> 100 µM (inactive),,> 100 µM (inactive),> 100 µM (inactive),> 100 µM (inactive),> 100 µM (inactive),> 100 µM (inactive),> 100 µM (inactive),> 100 µM (inactive),,> 100 µM (inactive)
C=C(C)CCN(C(=O)OC(C)(C)C)c1cc(C(C)C)co1,12.2 µM (inactive),73.6 µM (inactive),> 100 µM (inactive),57.7 µM (inactive),34 µM (inactive),54 µM (inactive),11.4 µM (inactive),28 µM (inactive),40.5 µM (inactive),40.4 µM (inactive),> 100 µM (inactive),44.3 µM (inactive),86.9 µM (inactive),59.2 µM (inactive),48.4 µM (inactive),> 100 µM (inactive),58.2 µM (inactive),25.6 µM (inactive),
N#Cc1nc(CN2C(=O)c3ccccc3C2=O)oc1N,,> 100 µM (inactive),> 100 µM (inactive),> 100 µM (inactive),> 100 µM (inactive),,> 100 µM (inactive),,> 100 µM (inactive),> 100 µM (inactive),> 100 µM (inactive),> 100 µM (inactive),,> 100 µM (inactive),> 100 µM (inactive),> 100 µM (inactive),> 100 µM (inactive),> 100 µM (inactive),> 100 µM (inactive)
N=C(N)NCCCC(NC(=O)c1cccc2c(=O)c3ccccc3[nH]c12)C(=O)O (configuration not stated),,> 100 µM (inactive),> 100 µM (inactive),> 100 µM (inactive),,> 100 µM (inactive),58.9 µM (inactive),> 100 µM (inactive),> 100 µM (inactive),> 100 µM (inactive),> 100 µM (inactive),> 100 µM (inactive),> 100 µM (inactive),> 100 µM (inactive),> 100 µM (inactive),> 100 µM (inactive),> 100 µM (inactive),> 100 µM (inactive),> 100 µM (inactive)
O=C1Cc2c([nH]c3ccc(C(=O)O)cc23)-c2ccccc2N1,> 100 µM (inactive),> 100 µM (inactive),> 100 µM (inactive),> 100 µM (inactive),> 100 µM (inactive),> 100 µM (inactive),> 100 µM (inactive),> 100 µM (inactive),> 100 µM (inactive),> 100 µM (inactive),6.79 µM (inactive),,> 100 µM (inactive),> 100 µM (inactive),> 100 µM (inactive),> 100 µM (inactive),> 100 µM (inactive),> 100 µM (inactive),
